Measurements as given in PubChem BioAssay AID2060905 (Molecular Pharmacology Branch, DTP, NCI, 2025).

Tested on: 282377-053-R-J1-PDC complex spheroid viability
Assay: Anticancer human tumor 282377-053-R-J1-PDC patient-derived colon adenocarcinoma cell line growth inhibition [RAS]
Settings: for IC50: curve of first compound; for viability, T/C: stronger effect = lower value
In short: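 Agents were tested in combination matrices in half-log decrements from a top concentration at or near clinical Cmax (10 microM if undetermined). Targets were multi-cell spheroids of tumour lines plus HUVEC and MSC stromal cells.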

[1] = second compound 0.00316 µM, first compound 0.0316 µM
[2] = second compound 0.00316 µM, first compound 0.1 µM
[3] = second compound 0.00316 µM, first compound 0.316 µM
[4] = second compound 0.00316 µM, first compound 1 µM
[5] = second compound 0.00316 µM, first compound 3.16 µM
[6] = second compound 0.00316 µM, first compound 10 µM
[7] = second compound 0.01 µM, first compound 0.0316 µM
[8] = second compound 0.01 µM, first compound 0.1 µM
[9] = second compound 0.01 µM, first compound 0.316 µM
[10] = second compound 0.01 µM, first compound 1 µM
[11] = second compound 0.01 µM, first compound 3.16 µM
[12] = second compound 0.01 µM, first compound 10 µM
[13] = second compound 0.0316 µM, first compound 0.0316 µM
[14] = second compound 0.0316 µM, first compound 0.1 µM
[15] = second compound 0.0316 µM, first compound 0.316 µM
[16] = second compound 0.0316 µM, first compound 1 µM
[17] = second compound 0.0316 µM, first compound 3.16 µM
[18] = second compound 0.0316 µM, first compound 10 µM
[19] = second compound 0.1 µM, first compound 0.0316 µM
[20] = second compound 0.1 µM, first compound 0.1 µM
[21] = second compound 0.1 µM, first compound 0.316 µM
[22] = second compound 0.1 µM, first compound 1 µM
[23] = second compound 0.1 µM, first compound 3.16 µM
[24] = second compound 0.1 µM, first compound 10 µM
[25] = second compound 0.316 µM, first compound 0.0316 µM
[26] = second compound 0.316 µM, first compound 0.1 µM
[27] = second compound 0.316 µM, first compound 0.316 µM
[28] = second compound 0.316 µM, first compound 1 µM
[29] = second compound 0.316 µM, first compound 3.16 µM
[30] = second compound 0.316 µM, first compound 10 µM
[31] = second compound 1 µM, first compound 0.0316 µM
[32] = second compound 1 µM, first compound 0.1 µM
[33] = second compound 1 µM, first compound 0.316 µM
[34] = second compound 1 µM, first compound 1 µM
[35] = second compound 1 µM, first compound 3.16 µM
[36] = second compound 1 µM, first compound 10 µM
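Further: spheroids exposed to agents for seven days before readout.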
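Wherever viability, T/C is given: luminescence viability as percent of DMSO vehicle control wells.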

CC1(O)CCCC1n1c(=O)c(C(F)F)cc2cnc(NC3CCN(S(C)(=O)=O)CC3)nc21 (stereo unspecified) + C=CC(=O)N1CCN(c2nc(OCC3CCCN3C)nc3c(F)c(-c4nc(N)cc(C)c4C(F)(F)F)c(Cl)cc23)C(C)C1
IC50 (second compound 0.00316 µM): 6.01 µM | IC50 (second compound 0.01 µM): 6.03 µM | IC50 (second compound 0.0316 µM): 5.93 µM | IC50 (second compound 0.1 µM): 6.22 µM | IC50 (second compound 0.316 µM): 6.21 µM | IC50 (second compound 1 µM): 6.48 µM | viability, T/C [1]: 124% | viability, T/C [2]: 124% | viability, T/C [3]: 134% | viability, T/C [4]: 106% | viability, T/C [5]: 109% | viability, T/C [6]: 2.69% | viability, T/C [7]: 118% | viability, T/C [8]: 113% | viability, T/C [9]: 107% | viability, T/C [10]: 122% | viability, T/C [11]: 110% | viability, T/C [12]: 2.79% | viability, T/C [13]: 102% | viability, T/C [14]: 141% | viability, T/C [15]: 123% | viability, T/C [16]: 110% | viability, T/C [17]: 107% | viability, T/C [18]: 3.33% | viability, T/C [19]: 107% | viability, T/C [20]: 117% | viability, T/C [21]: 124% | viability, T/C [22]: 118% | viability, T/C [23]: 119% | viability, T/C [24]: 2.9% | viability, T/C [25]: 108% | viability, T/C [26]: 112% | viability, T/C [27]: 125% | viability, T/C [28]: 111% | viability, T/C [29]: 128% | viability, T/C [30]: 2.56% | viability, T/C [31]: 131% | viability, T/C [32]: 131% | viability, T/C [33]: 135% | viability, T/C [34]: 132% | viability, T/C [35]: 129% | viability, T/C [36]: 2.51%

CCN1CCN(Cc2ccc(Nc3ncc(F)c(-c4cc(F)c5nc(C)n(C(C)C)c5c4)n3)nc2)CC1 + C=CC(=O)N1CCN(c2nc(OCC3CCCN3C)nc3c(F)c(-c4nc(N)cc(C)c4C(F)(F)F)c(Cl)cc23)C(C)C1
IC50 (second compound 0.00316 µM): > 1 µM | IC50 (second compound 0.01 µM): > 1 µM | IC50 (second compound 0.0316 µM): > 1 µM | IC50 (second compound 0.1 µM): > 1 µM | IC50 (second compound 0.316 µM): > 1 µM | IC50 (second compound 1 µM): > 1 µM | viability, T/C (second compound 0.00316 µM, first compound 0.00316 µM): 114% | viability, T/C (second compound 0.00316 µM, first compound 0.01 µM): 106% | viability, T/C [1]: 102% | viability, T/C [2]: 125% | viability, T/C [3]: 131% | viability, T/C [4]: 134% | viability, T/C (second compound 0.01 µM, first compound 0.00316 µM): 104% | viability, T/C (second compound 0.01 µM, first compound 0.01 µM): 106% | viability, T/C [7]: 91.4% | viability, T/C [8]: 112% | viability, T/C [9]: 146% | viability, T/C [10]: 131% | viability, T/C (second compound 0.0316 µM, first compound 0.00316 µM): 117% | viability, T/C (second compound 0.0316 µM, first compound 0.01 µM): 87.1% | viability, T/C [13]: 100% | viability, T/C [14]: 121% | viability, T/C [15]: 141% | viability, T/C [16]: 132% | viability, T/C (second compound 0.1 µM, first compound 0.00316 µM): 97.1% | viability, T/C (second compound 0.1 µM, first compound 0.01 µM): 108% | viability, T/C [19]: 100% | viability, T/C [20]: 104% | viability, T/C [21]: 106% | viability, T/C [22]: 135% | viability, T/C (second compound 0.316 µM, first compound 0.00316 µM): 85.5% | viability, T/C (second compound 0.316 µM, first compound 0.01 µM): 115% | viability, T/C [25]: 122% | viability, T/C [26]: 99.8% | viability, T/C [27]: 126% | viability, T/C [28]: 126% | viability, T/C (second compound 1 µM, first compound 0.00316 µM): 109% | viability, T/C (second compound 1 µM, first compound 0.01 µM): 104% | viability, T/C [31]: 121% | viability, T/C [32]: 113% | viability, T/C [33]: 138% | viability, T/C [34]: 134%

C[C@@H](NC(=O)c1ncnc(N)c1Cl)c1ncc(C(=O)Nc2cc(C(F)(F)F)c(Cl)cn2)s1 + C=CC(=O)N1CCN(c2nc(OCC3CCCN3C)nc3c(F)c(-c4nc(N)cc(C)c4C(F)(F)F)c(Cl)cc23)C(C)C1
IC50 (second compound 0.00316 µM): > 10 µM | IC50 (second compound 0.01 µM): > 10 µM | IC50 (second compound 0.0316 µM): > 10 µM | IC50 (second compound 0.1 µM): > 10 µM | IC50 (second compound 0.316 µM): > 10 µM | IC50 (second compound 1 µM): > 10 µM | viability, T/C [1]: 99% | viability, T/C [2]: 101% | viability, T/C [3]: 95.4% | viability, T/C [4]: 88.4% | viability, T/C [5]: 69.5% | viability, T/C [6]: 66.1% | viability, T/C [7]: 84.1% | viability, T/C [8]: 105% | viability, T/C [9]: 98% | viability, T/C [10]: 80.7% | viability, T/C [11]: 82.2% | viability, T/C [12]: 76.4% | viability, T/C [13]: 84.9% | viability, T/C [14]: 78.4% | viability, T/C [15]: 89.4% | viability, T/C [16]: 84.7% | viability, T/C [17]: 80.9% | viability, T/C [18]: 57.6% | viability, T/C [19]: 106% | viability, T/C [20]: 98.7% | viability, T/C [21]: 99.9% | viability, T/C [22]: 92.3% | viability, T/C [23]: 66% | viability, T/C [24]: 66.1% | viability, T/C [25]: 92.5% | viability, T/C [26]: 118% | viability, T/C [27]: 98.1% | viability, T/C [28]: 81.6% | viability, T/C [29]: 78.2% | viability, T/C [30]: 92.3% | viability, T/C [31]: 104% | viability, T/C [32]: 90.3% | viability, T/C [33]: 122% | viability, T/C [34]: 76.5% | viability, T/C [35]: 85% | viability, T/C [36]: 82.5%
